Reference: ChEMBL document CHEMBL1142855, “Hydroxylated N-alkyl-4-piperidinyl-2,3-diarylpyrrole derivatives as potent broad-spectrum anticoccidial agents” (Bioorg Med Chem Lett, 2005)

Tests used:
Eimeria acervulina = test: Anticoccidial activity as percentage reduction in oocyst production in birds infected with Eimeria acervulina after 100 ppm dose; type: functional
Eimeria tenella [1] = test: Anticoccidial activity as percentage reduction in oocyst production in birds infected with Eimeria tenella after 100 ppm dose; Range is 50-79%; type: functional
Eimeria tenella [2] = test: Anticoccidial activity as percentage reduction in oocyst production in birds infected with Eimeria tenella after 100 ppm dose; type: functional
[3] = molecular target: cGMP-dependent protein kinase (Eimeria tenella, UniProt Q8MMZ8); test: Inhibitory activity against cGMP-dependent protein kinase from Eimeria tenella
Sequence of cGMP-dependent protein kinase (Q8MMZ8 whole entry): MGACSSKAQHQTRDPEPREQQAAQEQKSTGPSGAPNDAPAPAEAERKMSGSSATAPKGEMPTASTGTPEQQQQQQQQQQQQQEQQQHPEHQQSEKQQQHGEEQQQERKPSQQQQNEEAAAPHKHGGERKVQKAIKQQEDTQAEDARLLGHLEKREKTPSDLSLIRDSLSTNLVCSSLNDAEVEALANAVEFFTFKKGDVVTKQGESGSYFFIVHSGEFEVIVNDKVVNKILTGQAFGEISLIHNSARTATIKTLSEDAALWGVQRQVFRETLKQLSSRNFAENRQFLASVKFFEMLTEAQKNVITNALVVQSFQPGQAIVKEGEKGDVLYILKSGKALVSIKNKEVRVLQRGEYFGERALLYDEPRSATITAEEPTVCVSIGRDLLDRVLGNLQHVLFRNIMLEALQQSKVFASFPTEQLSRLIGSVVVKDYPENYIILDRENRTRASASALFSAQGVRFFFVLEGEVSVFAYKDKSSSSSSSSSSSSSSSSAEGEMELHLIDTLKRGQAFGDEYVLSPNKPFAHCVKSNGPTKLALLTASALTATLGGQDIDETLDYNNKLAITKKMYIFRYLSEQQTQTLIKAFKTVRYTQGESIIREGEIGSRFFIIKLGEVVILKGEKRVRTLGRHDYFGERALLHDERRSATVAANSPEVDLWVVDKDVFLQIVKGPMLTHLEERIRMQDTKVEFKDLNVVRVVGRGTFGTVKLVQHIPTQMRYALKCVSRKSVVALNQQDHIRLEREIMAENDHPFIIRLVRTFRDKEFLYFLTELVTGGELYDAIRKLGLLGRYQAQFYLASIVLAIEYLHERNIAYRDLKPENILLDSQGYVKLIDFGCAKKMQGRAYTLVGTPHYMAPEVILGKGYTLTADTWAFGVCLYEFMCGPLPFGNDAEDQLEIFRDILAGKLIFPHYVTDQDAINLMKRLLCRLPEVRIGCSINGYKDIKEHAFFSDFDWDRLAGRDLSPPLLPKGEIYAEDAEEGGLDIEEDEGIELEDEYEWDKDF

| SMILES | Anticoccidial Activity (Eimeria acervulina) [%] | Anticoccidial Activity (Eimeria tenella [1]) [%] | Anticoccidial Activity (Eimeria tenella [2]) [%] | IC50 [3] [nM] |
| --- | --- | --- | --- | --- |
| OCCCN1CCC(c2cc(-c3ccncc3)c(-c3ccc(F)cc3)[nH]2)CC1 | >80 | 79 |  |  |
| OCCN1CCC(c2cc(-c3ccncc3)c(-c3ccc(F)cc3)[nH]2)CC1 | >80 |  | >80 |  |
| CCCN1CCC(c2cc(-c3ccncc3)c(-c3ccc(F)cc3)[nH]2)CC1 | <50 |  | <50 |  |
| CC(O)[C@H](CO)N1CCC(c2cc(-c3ccncc3)c(-c3ccc(F)cc3)[nH]2)CC1 (stereo partly specified) | >80 |  | >80 | 0.82 |
| OCCCCN1CCC(c2cc(-c3ccncc3)c(-c3ccc(F)cc3)[nH]2)CC1 | >80 |  | >80 | 1.34 |
| OC(COCc1ccco1)CN1CCC(c2cc(-c3ccncc3)c(-c3ccc(F)cc3)[nH]2)CC1 (stereo unspecified) | <50 |  | <50 | 0.82 |
| C[C@H](O)CN1CCC(c2cc(-c3ccncc3)c(-c3ccc(F)cc3)[nH]2)CC1 | >80 |  | >80 | 0.48 |
| CCC(O)CN1CCC(c2cc(-c3ccncc3)c(-c3ccc(F)cc3)[nH]2)CC1 (stereo unspecified) | >80 |  | >80 | 0.71 |
| CCCC(O)CN1CCC(c2cc(-c3ccncc3)c(-c3ccc(F)cc3)[nH]2)CC1 (stereo unspecified) | <50 |  | <50 | 0.38 |
| CCOCC(O)CN1CCC(c2cc(-c3ccncc3)c(-c3ccc(F)cc3)[nH]2)CC1 (stereo unspecified) | >80 | 79 |  | 0.59 |
| CCCCC(O)CN1CCC(c2cc(-c3ccncc3)c(-c3ccc(F)cc3)[nH]2)CC1 (stereo unspecified) | <50 |  | <50 | 0.41 |
| CC(O)C(O)CN1CCC(c2cc(-c3ccncc3)c(-c3ccc(F)cc3)[nH]2)CC1 (stereo unspecified) | >80 |  | >80 | 0.4 |
| OC(Cc1ccccc1)CN1CCC(c2cc(-c3ccncc3)c(-c3ccc(F)cc3)[nH]2)CC1 (stereo unspecified) | >80 |  | <50 | 1.28 |
| OCCCCCN1CCC(c2cc(-c3ccncc3)c(-c3ccc(F)cc3)[nH]2)CC1 | >80 |  | >80 | 1.46 |
| CC(C)(C)OCC(O)CN1CCC(c2cc(-c3ccncc3)c(-c3ccc(F)cc3)[nH]2)CC1 (stereo unspecified) | <50 |  | <50 | 0.98 |
| C=CCOCC(O)CN1CCC(c2cc(-c3ccncc3)c(-c3ccc(F)cc3)[nH]2)CC1 (stereo unspecified) | <50 |  | <50 | 0.8 |

| SMILES | Anticoccidial Activity (Eimeria acervulina) [%] | Anticoccidial Activity (Eimeria tenella [1]) [%] | Anticoccidial Activity (Eimeria tenella [2]) [%] | IC50 [3] [nM] |
| --- | --- | --- | --- | --- |
| OC(COCc1ccccc1)CN1CCC(c2cc(-c3ccncc3)c(-c3ccc(F)cc3)[nH]2)CC1 (stereo unspecified) | <50 |  | <50 | 0.47 |
| COC[C@H](O)CN1CCC(c2cc(-c3ccncc3)c(-c3ccc(F)cc3)[nH]2)CC1 | >80 |  | >80 | 0.69 |
| COC[C@@H](O)CN1CCC(c2cc(-c3ccncc3)c(-c3ccc(F)cc3)[nH]2)CC1 | >80 |  | >80 | 0.56 |
| CC(=O)N1C[C@H](O)CC1CN1CCC(c2cc(-c3ccncc3)c(-c3ccc(F)cc3)[nH]2)CC1 (stereo partly specified) |  |  |  | 2.2 |
| CC(O)[C@H](C)N1CCC(c2cc(-c3ccncc3)c(-c3ccc(F)cc3)[nH]2)CC1 (stereo partly specified) | >80 |  | >80 | 0.86 |
| CC(C)OCC(O)CN1CCC(c2cc(-c3ccncc3)c(-c3ccc(F)cc3)[nH]2)CC1 (stereo unspecified) | <50 |  | <50 | 0.69 |
| CC(O)[C@@H](CO)N1CCC(c2cc(-c3ccncc3)c(-c3ccc(F)cc3)[nH]2)CC1 (stereo partly specified) | >80 |  | >80 | 1.01 |
| CC(=O)OCCN1CCC(c2cc(-c3ccncc3)c(-c3ccc(F)cc3)[nH]2)CC1 | <50 |  | <50 | 2.08 |
| CCCCCCC(O)CN1CCC(c2cc(-c3ccncc3)c(-c3ccc(F)cc3)[nH]2)CC1 (stereo unspecified) | <50 |  | <50 | 1.01 |
| C[C@@H](O)CN1CCC(c2cc(-c3ccncc3)c(-c3ccc(F)cc3)[nH]2)CC1 | >80 |  | >80 | 1.2 |
| OC(COc1ccccc1)CN1CCC(c2cc(-c3ccncc3)c(-c3ccc(F)cc3)[nH]2)CC1 (stereo unspecified) | <50 |  | <50 | 0.66 |
| O[C@H]1CNC(CN2CCC(c3cc(-c4ccncc4)c(-c4ccc(F)cc4)[nH]3)CC2)C1 (stereo partly specified) |  |  |  | 0.16 |
| CC(O)[C@@H](C)N1CCC(c2cc(-c3ccncc3)c(-c3ccc(F)cc3)[nH]2)CC1 (mixture of isomers) | >80 |  | >80 | 0.94 |
| OCC(O)CN1CCC(c2cc(-c3ccncc3)c(-c3ccc(F)cc3)[nH]2)CC1 (stereo in doubt; 5a) | <50 |  | >80 | 0.51 |
| OCC(O)CN1CCC(c2cc(-c3ccncc3)c(-c3ccc(F)cc3)[nH]2)CC1 (stereo in doubt; 5b) | >80 |  |  | 0.71 |
| OCC(O)CN1CCC(c2cc(-c3ccncc3)c(-c3ccc(F)cc3)[nH]2)CC1 (stereo in doubt; 5e) |  |  |  | 1.27 |
